Values after ≈ are worked out from the molar mass of the structure shown. Where a name gives a salt, the structure may show the parent alone. Read-outs that look alike come from different tables or passages of the source.
System: pathogenic bacteria
Test: MIC by microdilution broth method (NCCLS M7-A4), in vitro antibacterial activity
Format: cell-based
Procedure: Minimal inhibitory concentration (MIC) has been an indicator of in vitro antibacterial activity widely used in the art. The in vitro antimicrobial activity of the compounds was determined by the microdilution broth method following the test method from the National Committee for Clinical Laboratory Standards (NCCLS). This method is described in the NCCLS Document M7-A4, Vol. 17, No. 2, “Methods for Dilution Antimicrobial Susceptibility Test for Bacteria that Grow Aerobically—Fourth Edition”, which is incorporated herein by reference.
In this method two-fold serial dilutions of drug in cation adjusted Mueller-Hinton broth are added to wells in microdilution trays. The test organisms are prepared by adjusting the turbidity of actively growing broth cultures so that the final concentration of test organism after it is added to the wells is approximately 5×10^4 CFU/well.
Following inoculation of the microdilution trays, the trays are incubated at 35° C. for 16-20 hours and then read. […] The amount of growth in the wells containing the test compound is compared with the amount of growth in the growth-control wells (no test compound) used in each tray. As set forth in Table 5, compounds of the present invention were tested against a variety of pathogenic bacteria resulting in a range of activities depending on the organism tested.

[1] = Staphylococcus aureus, Organism A: Staphylococcus aureus OC4172, read-out: MIC
[2] = Streptococcus pneumoniae, ATCC49619, Organism E: Streptococcus pneumoniae ATCC 49619, read-out: MIC
[3] = Streptococcus pneumoniae, Organism B: fluoroquinolone-resistant clinical isolate of Streptococcus pneumoniae (QRDR amino acid substitutions)
[4] = Streptococcus pneumoniae, Organism C: fluoroquinolone-resistant clinical isolate of Streptococcus pneumoniae (QRDR amino acid substitutions)
[5] = Streptococcus pneumoniae, Organism D: fluoroquinolone-resistant clinical isolate of Streptococcus pneumoniae (QRDR amino acid substitutions)
[6] = Organism A: Staphylococcus aureus OC4172
[7] = Organism C: fluoroquinolone-resistant clinical isolate of Streptococcus pneumoniae (QRDR amino acid substitutions)
[8] = Organism E: Streptococcus pneumoniae ATCC 49619

SMILES	MIC [1] [µg/mL]	MIC [2] [µg/mL]	MIC [3] [µg/mL]	MIC [4] [µg/mL]	MIC [5] [µg/mL]	MIC [6] [µg/mL]	MIC (Organism B: fluoroquinolone-resistant clinical isolate of Streptococcus pneumoniae (QRDR amino acid substitutions)) [µg/mL]	MIC [7] [µg/mL]	MIC (Organism D: fluoroquinolone-resistant clinical isolate of Streptococcus pneumoniae (QRDR amino acid substitutions)) [µg/mL]	MIC [8] [µg/mL]
NCC(F)=C1CCN(c2nc3c(cc2F)c(=O)c(C(=O)O)cn3C2CC2)CC1 [Compound 1, 7-[4-(2-Amino-1-fluoro-ethylidene)-piperidin-1-yl]-1-cyclopropyl-6-fluoro-4-oxo-1,4-dihydro-[1,8]naphthyridine-3-carboxylic acid]	0.03 (≈ 0.0768 µM)	0.12 (≈ 0.307 µM)	2 (≈ 5.12 µM)	0.5 (≈ 1.28 µM)	1 (≈ 2.56 µM)	–	–	–	–	–
CC(CN)=C1CCN(c2nc3c(cc2F)c(=O)c(C(=O)O)cn3C2CC2)CC1 [Compound 2, 7-[4-(2-Amino-1-methyl-ethylidene)-piperidin-1-yl]-1-cyclopropyl-6-fluoro-4-oxo-1,4-dihydro-[1,8]naphthyridine-3-carboxylic acid]	0.06 (≈ 0.155 µM)	0.12 (≈ 0.311 µM)	0.25 (≈ 0.647 µM)	1 (≈ 2.59 µM)	1 (≈ 2.59 µM)	–	–	–	–	–
NCC(Cl)=C1CCN(c2nc3c(cc2F)c(=O)c(C(=O)O)cn3C2CC2)CC1 [Compound 3, 7-[4-(2-Amino-1-chloro-ethylidene)-piperidin-1-yl]-1-cyclopropyl-6-fluoro-4-oxo-1,4-dihydro-[1,8]naphthyridine-3-carboxylic acid]	0.06 (≈ 0.147 µM)	0.12 (≈ 0.295 µM)	1 (≈ 2.46 µM)	0.25 (≈ 0.614 µM)	1 (≈ 2.46 µM)	–	–	–	–	–
NCC(F)=C1CCN(c2nc3c(cc2F)c(=O)c(C(=O)O)cn3-c2ccc(F)cc2F)CC1 [Compound 4, 7-[4-(2-Amino-1-fluoro-ethylidene)-piperidin-1-yl]-1-(2,4-difluoro-phenyl)-6-fluoro-4-oxo-1,4-dihydro-[1,8]naphthyridine-3-carboxylic acid]	0.06 (≈ 0.13 µM)	0.25 (≈ 0.541 µM)	–	1 (≈ 2.16 µM)	2 (≈ 4.33 µM)	–	–	–	–	–
NCC(F)=C1CCN(c2cc3c(cc2F)c(=O)c(C(=O)O)cn3C2CC2)CC1 [Compound 5, 7-[4-(2-Amino-1-fluoro-ethylidene)-piperidin-1-yl]-l - cyclopropyl-6-fluoro-4-oxo-1,4-dihydro-quinoline-3-carboxylic acid trifluoroacetic acid salt]	0.03	–	–	1	–	–	–	–	–	–
COc1c(N2CCC(=C(C)CN)CC2)c(F)cc2c(=O)c(C(=O)O)cn(C3CC3)c12 [Compound 6, 7-[4-(2-Amino-1-methyl-ethylidene)-piperidin-1-yl]-1-cyclopropyl-6-fluoro-8-methoxy-4-oxo-1,4-dihydro-quinoline-3-carboxylic acid]	0.03 (≈ 0.0722 µM)	0.06 (≈ 0.144 µM)	–	0.5 (≈ 1.2 µM)	–	–	–	–	–	–
COc1c(N2CCC(=C(Cl)CN)CC2)c(F)cc2c(=O)c(C(=O)O)cn(C3CC3)c12 [Compound 7, 7-[4-(2-Amino-1-chloro-ethylidene)-piperidin-1-yl]-1-cyclopropyl-6-fluoro-8-methoxy-4-oxo-1,4-dihydro-quinoline-3-carboxylic Acid]	0.015 (≈ 0.0344 µM)	0.06 (≈ 0.138 µM)	0.06 (≈ 0.138 µM)	0.12 (≈ 0.275 µM)	0.12 (≈ 0.275 µM)	–	–	–	–	–
CC1COc2c(N3CCC(=C(F)CN)CC3)c(F)cc3c(=O)c(C(=O)O)cn1c23 (centres unmarked) [Compound 8, 9-[4-(2-Amino-1-fluoro-ethylidene)-piperidin-1-yl]-8-fluoro-3-methyl-6-oxo-2,3-dihydro-6H-1-oxa-3a-aza-phenalene-5-carboxylic acid]	0.25 (≈ 0.617 µM)	0.5 (≈ 1.23 µM)	2 (≈ 4.93 µM)	8 (≈ 19.7 µM)	8 (≈ 19.7 µM)	–	–	–	–	–
CC(CN)=C1CCN(c2c(F)cc3c(=O)c(C(=O)O)cn4c3c2OCC4C)CC1 (centres unmarked) [Compound 9, 9-[4-(2-Amino-1-methyl-ethylidene)-piperidin-1-yl]-8-fluoro-3-methyl-6-oxo-2,3-dihydro-6H-1-oxa-3a-aza-phenalene-5-carboxylic acid]	0.5 (≈ 1.25 µM)	1 (≈ 2.49 µM)	4 (≈ 9.96 µM)	> 16	> 16	–	–	–	–	–
COc1c(N2CCC(=C(F)CN)CC2)ccc2c(=O)c(C(=O)O)cn(C3CC3)c12 [Compound 10, 7-[4-(2-Amino-1-fluoro-ethylidene)-piperidin-1-yl]-1-cyclopropyl-8-methoxy-4-oxo-1,4-dihydro-quinoline-3-carboxylic acid]	0.03 (≈ 0.0747 µM)	0.12 (≈ 0.299 µM)	–	0.5 (≈ 1.25 µM)	1 (≈ 2.49 µM)	–	–	–	–	–
COc1c(N2CC/C(=C(/F)CN)C(C)C2)c(F)cc2c(=O)c(C(=O)O)cn(C3CC3)c12 (centres unmarked) [Compound 11, (Z)-7-[4-(2-Amino-1-fluoro-ethylidene)-3-methyl-piperidin-1-yl]-1-cyclopropyl-6-fluoro-8-methoxy-4-oxo-1,4-dihydro-quinoline-3-carboxylic acid]	0.03 (≈ 0.0692 µM)	0.12 (≈ 0.277 µM)	–	0.5 (≈ 1.15 µM)	1 (≈ 2.31 µM)	–	–	–	–	–
COc1c(N2CCC(=C(F)CN)CC2)c(F)cc2c(=O)c(C(=O)O)cn(C3CC3)c12 [Compound 12, (E)-7-[4-(2-Amino-1-fluoro-ethylidene)-piperidin-1-yl]-1-cyclopropyl-7-6-fluoro-8-methoxy-4-oxo-1,4-dihydro-quinoline-3-carboxylic acid]	–	–	–	–	–	0.12 (≈ 0.286 µM)	2 (≈ 4.77 µM)	4 (≈ 9.54 µM)	4 (≈ 9.54 µM)	0.5 (≈ 1.19 µM)
COc1c(N2CC/C(=C(\Cl)CN)C2)c(F)cc2c(=O)c(C(=O)O)cn(C3CC3)c12 [Compound 14, (E)-7-[3-(2-Amino-1-chloro-ethylidene)-pyrrolidin-1-yl]-1-cyclopropyl-6-fluoro-8-methoxy-4-oxo-1,4-dihydro-quinoline-3-carboxylic acid]	0.03 (≈ 0.0711 µM)	0.25 (≈ 0.593 µM)	2 (≈ 4.74 µM)	1 (≈ 2.37 µM)	1 (≈ 2.37 µM)	–	–	–	–	–
NCC=C1CCN(c2nc3c(cc2F)c(=O)c(C(=O)O)cn3C2CC2)CC1 [Compound 59, 7-[4-(2-Amino-ethylidene)-piperidin-1-yl]-1-cyclopropyl-6-fluoro-4-oxo-1,4-dihydro-[1,8]naphthyridine-3-carboxylic acid]	0.06 (≈ 0.161 µM)	0.5 (≈ 1.34 µM)	8 (≈ 21.5 µM)	8 (≈ 21.5 µM)	–	–	–	–	–	–
NCC=C1CCN(c2nc3c(cc2F)c(=O)c(C(=O)O)cn3C2CC2)CC1O (centres unmarked) [Compound 60, 7-[4-(2-Amino-ethylidene)-3-hydroxy-piperidin-1-yl]-1-cyclopropyl-6-fluoro-4-oxo-1,4-dihydro-[1,8]naphthyridine-3-carboxylic acid]	2 (≈ 5.15 µM)	16 (≈ 41.2 µM)	–	16 (≈ 41.2 µM)	–	–	–	–	–	–
CON=C1CN(c2nc3c(cc2F)c(=O)c(C(=O)O)cn3C2CC2)CCC1=CCN [Compound 61, 7-[4-(2-Amino-ethylidene)-3-methoxyimino-piperidin-1-yl]-1-cyclopropyl-6-fluoro-4-oxo-1,4-dihydro-[1,8]naphthyridine-3-carboxylic acid]	0.12 (≈ 0.289 µM)	1 (≈ 2.41 µM)	–	16 (≈ 38.5 µM)	–	–	–	–	–	–
CC(CN)=C1CCN(c2nc3c(cc2F)c(=O)c(C(=O)O)cn3C2CC2)CC1O (centres unmarked) [Compound 62, 7-[4-(2-Amino-1-methyl-ethylidene)-3-hydroxy-piperidin-1-yl]-1-cyclopropyl-6-fluoro-4-oxo-1,4-dihydro-[1,8]naphthyridine-3-carboxylic acid]	2 (≈ 4.97 µM)	8 (≈ 19.9 µM)	> 16	> 16	–	–	–	–	–	–
CC(CN)=C1CCN(c2cc3c(cc2F)c(=O)c(C(=O)O)cn3C2CC2)CC1 [Compound 64, 7-[4-(2-Amino-1-methyl-ethylidene)-piperidin-1-yl]-1-cyclopropyl-6-fluoro-4-oxo-1,4-dihydro-quinoline-3-carboxylic acid]	0.12 (≈ 0.311 µM)	1 (≈ 2.59 µM)	8 (≈ 20.8 µM)	2 (≈ 5.19 µM)	8 (≈ 20.8 µM)	–	–	–	–	–
NCC(Cl)=C1CCN(c2cc3c(cc2F)c(=O)c(C(=O)O)cn3C2CC2)CC1 [Compound 65, 7-[4-(2-Amino-1-chloro-ethylidene)-piperidin-1-yl]-1-1-cyclopropyl-6-fluoro-4-oxo-1,4-dihydro-quinoline-3-carboxylic acid]	0.03 (≈ 0.0739 µM)	0.12 (≈ 0.296 µM)	–	0.5 (≈ 1.23 µM)	1 (≈ 2.46 µM)	–	–	–	–	–
CCC(CN)=C1CCN(c2nc3c(cc2F)c(=O)c(C(=O)O)cn3C2CC2)CC1 [Compound 69, 7-[4-(1-Aminomethyl-propylidene)-piperidin-1-yl]-1-cyclopropyl-6-fluoro-4-oxo-1,4-dihydro-[1,8]naphthyridine-3-carboxylic acid]	0.06 (≈ 0.15 µM)	0.25 (≈ 0.624 µM)	–	1 (≈ 2.5 µM)	2 (≈ 4.99 µM)	–	–	–	–	–
COc1c(N2CCC(=C(C)CN)CC2)c(F)cc2c(=O)c(C(=O)O)cn(C3CC3)c12 [Compound 70, 7-[4-(2-Amino-1-methyl-ethylidene)-piperidin-1-yl]-1-cyclopropyl-6-fluoro-8-methoxy-4-oxo-1,4-dihydro-quinoline-3-carboxylic acid]	–	–	–	–	0.25 (≈ 0.602 µM)	0.03 (≈ 0.0722 µM)	–	0.25 (≈ 0.602 µM)	–	0.12 (≈ 0.289 µM)
CCC(CN)=C1CCN(c2c(F)cc3c(=O)c(C(=O)O)cn(C4CC4)c3c2OC)CC1 [Compound 71, 7-[4-(1-Aminomethyl-propylidene)-piperidin-1-yl]-1-cyclopropyl-6-fluoro-8-methoxy-4-oxo-1,4-dihydro-quinoline-3-carboxylic acid]	0.03 (≈ 0.0698 µM)	0.12 (≈ 0.279 µM)	–	0.25 (≈ 0.582 µM)	0.5 (≈ 1.16 µM)	–	–	–	–	–
